{
  "source": "paper PMC6027051",
  "about": "“Polymer–Surfactant System Based Amorphous Solid Dispersion: Precipitation Inhibition and Bioavailability Enhancement of Itraconazole” (Pharmaceutics, 2018)",
  "assay_type_in_all_cases": "physicochemical",
  "key": {"[1]": {"assay": "Equilibrium solubility of ITZ in SIF with or without surfactant (shaking flask method)", "details": "for solubility thermodynamic at 48 h: 37 °C, n = 3, read-out: ITZ Concentration in SIF (equilibrium solubility)", "description": "An excess amount of ITZ was added to SIF with or without pre-dissolved surfactant (1 mg/mL) and mixed by vortex for 2 min. After incubation in a shaking incubator at 37 °C for 48 h, the suspension was centrifuged (15,000 rpm for 10 min) and filtered through a 0.22 μm Millipore filter (Jinteng Experimental Equipment Co., Ltd, Tianjin, China). Prior to assay by high performance liquid (HPLC) (Shimadzu Corporation, Kyoto, Japan) using a PhenomenexC18 column (4.6 × 250 mm, 5 μm), the filtrate was diluted 1:1 with mobile phase. The mobile phase was consisted of 0.5% diisopropylamine in methanol and 0.1% ammonium acetate in distilled water (80:20) with a rate of 1.0 mL/min. The effluent was monitored at an ultraviolet-visible (UV) absorption wavelength of 263 nm. The retention time of ITZ under these conditions was 4.9 min. Calibration curve (Figure 1A) were linear over a concentration range of 0.04–40 μg/mL. The limit of quantitation (LOQ) and limit of detection (LOD) was 25 ng and 10 ng, respectively. Each equilibrium solubility test was performed in triplicate."}, "[2]": {"assay": "Supersaturation dissolution test with pH-shift (SGF to SIF, USP paddle method)", "description": "In order to simulate the drug peristalsis in vivo situation, a transfer of simulated gastric fluid (SGF) to SIF was conducted for in vitro dissolution experiment. Supersaturation dissolution tests were performed according to USP 29 Apparatus 2 guidelines (paddle method) with a ZRS-8G dissolution tester (TDTF, Tianjin, China). Briefly, samples containing equivalent amounts of ITZ (45 mg) were subjected to each dissolution vessel containing SGF (750 mL of 0.1 N HCl) for 2 h, followed by pH adjustment to 6.8 by the addition of 250 mL of 0.2 M tribasic sodium phosphate (Na3PO4) for additional 3 h. The dissolution media was kept at 37.0 ± 0.5 °C and the paddle speed was maintained at 100 rpm throughout the test procedure. Aliquot samples (5 mL) were withdrawn at predetermined time intervals (120, 125, 150, 180, 240, and 300 min). The samples were filtered through a […] millipore filter and the first few drops were discarded. The filtrate was immediately diluted with methanol to prevent the precipitation. The ITZ concentration was assayed by ultraviolet spectrophotometry (TU-1901, Beijing Purkinje General Instrument Co., Ltd., Beijing, China) at a wavelength of 263 nm. The calibration curve of ITZ in UV spectrophotometry was shown in Figure 1B with a concentration range of 0.25–80 μg/mL. […]"}, "[3]": {"assay": "Nucleation induction time measurement (turbidity at 490 nm, plate reader) in SIF", "details": "supersaturated ITZ solution by solvent shift (DMSO stock into SIF), absorbance 490 nm", "description": "Supersaturation stability is commonly evaluated by measuring the induction time for nucleation, which is defined as the time lag for the appearance of the observable crystals. In this study, the precipitation induction time of different formulations were obtained by determining the changes in turbidity using plate reader detection technique. Supersaturated ITZ solutions were prepared by the solvent shift method. All the samples were dissolved in dimethyl sulfoxide (DMSO) to obtain ITZ stock solution at a concentration of 1mg/mL, then the stock solution was added into SIF and stirred constantly to generate a supersaturated solution. Immediately, 300 μL of individual supersaturated solution was transferred into a 96-well polypropylene plate and the optical density value of each well was measured at 490 nm using plate reader (Bio-Tek, Winooski, VT, USA). […] Thus, the turbidity was the only contributor to the changed absorbance. The samples were also shaken before the measurement and each formulation was detected in triplicate. All the analyses and calculations were carried out using Gen 5.0 (Bio-Tek, Winooski, VT, USA)."}},
  "note": "Like-named read-outs stand apart in the source and are kept apart here.",
  "data": [
    {"smiles": "CCC(C)n1ncn(-c2ccc(N3CCN(c4ccc(OCC5COC(Cn6cncn6)(c6ccc(Cl)cc6Cl)O5)cc4)CC3)cc2)c1=O", "note": "(centres unmarked) [ITZ, Itraconazole]", "values": [
      {"measurement": "solubility thermodynamic at 48 h", "setting": "[1]; SIF with Poloxamer 188 1 mg/mL, pH 6.8, SIF pH 6.8 with Poloxamer 188 1 mg/mL", "value": "0.92 ± 0.27", "unit": "µg/mL"},
      {"measurement": "solubility thermodynamic at 48 h", "setting": "[1]; SIF with SDS 1 mg/mL, pH 6.8, SIF pH 6.8 with SDS 1 mg/mL", "value": "1.66 ± 0.53", "unit": "µg/mL"},
      {"measurement": "solubility thermodynamic at 48 h", "setting": "[1]; SIF with Soluplus 1 mg/mL, pH 6.8, SIF pH 6.8 with Soluplus 1 mg/mL", "value": "0.1 ± 0.06", "unit": "µg/mL"},
      {"measurement": "solubility thermodynamic at 48 h", "setting": "[1]; SIF with TPGS 1 mg/mL, pH 6.8, SIF pH 6.8 with TPGS 1 mg/mL", "value": "4.83 ± 0.81", "unit": "µg/mL"},
      {"measurement": "Increase of equilibrium solubility in the presence of TPGS over SIF", "setting": "[1]; SIF with TPGS vs SIF alone", "value": "approximately 580 fold"},
      {"measurement": "solubility thermodynamic at 48 h", "setting": "[1]; SIF with Tween 80 1 mg/mL, pH 6.8, aqueous with cosolvent or surfactant or cyclodextrin, thermodynamic from solid, SIF pH 6.8 with Tween 80 1 mg/mL", "value": "0.03 ± 0.01", "unit": "µg/mL"},
      {"measurement": "solubility thermodynamic at 48 h", "setting": "[1]; SIF with sodium cholate 1 mg/mL, pH 6.8, aqueous with cosolvent or surfactant or cyclodextrin, thermodynamic from solid, SIF pH 6.8 with Sodium cholate 1 mg/mL", "value": "0.07 ± 0.02", "unit": "µg/mL"},
      {"measurement": "solubility thermodynamic at 48 h", "setting": "[1]; simulated intestinal fluid (SIF) without surfactant, pH 6.8, fassgf or other biorelevant, thermodynamic from solid, SIF pH 6.8 without surfactant (Blank group)", "value": "~0.008", "unit": "µg/mL"},
      {"measurement": "ITZ released after 2 h in SGF", "setting": "[2]; SGF (0.1 N HCl), 120 min, 37 °C, 45 mg ITZ", "value": 3, "unit": "%"},
      {"measurement": "Cumulative release amount after pH change to 6.8 (rapid precipitation, eventually dropped to)", "setting": "[2]; SIF pH 6.8, precipitation from five minutes after the pH change", "value": "< 1", "unit": "%"},
      {"measurement": "Turbidity / precipitation behaviour in the absorbance-time curve", "setting": "[3]", "value": "rapid increase in the absorbance followed by a gradual decline"}
    ]}
  ]
}
